Results published in patent publication US8889662B2, “Method to alter sex ratios in avian offspring” (University of Georgia Research Foundation, Inc., priority 2009, dated 2014).
Several values for one entry are separate records, joined by “and”; a condition that tells them apart may be missing. Equal values may be shown once.

Legend:
[1] = chickens, previous work; cited from earlier work
laying hens = assay: Preliminary studies with silastic CORT implants: CORT concentrations and laying patterns; format: in vivo, chicken
Experimental: Additionally, concentrations of CORT and three other hormonal factors known to interact with CORT and ovarian follicular development—testosterone, progesterone, and leptin—will be measured in blood samples taken 4 h after ovulation as well as 4 and 6 h prior to ovulation in females from both treatment groups on days 3, 6, and 12 (to correspond with ovulation of collected eggs above). CORT concentrations will be measured in the yolk of each collected egg as well. […] Additionally, laying patterns were monitored for 2 weeks following implantation and 100% of birds implanted with CORT implants continued to lay at a similar frequency compared to before implantation, illustrating that we will be able to collect eggs from birds following this chronic implant treatment.

[2] = Example 2: plasma corticosterone radioimmunoassay after injection, zebra finches; format: in vivo, Zebra finch (Taeniopygia guttata); conditions: zebra finch, 20 ug
Experimental: Radioimmunoassays. […] Different individuals were sampled at each time point. Blood samples were also taken from a set of unmanipulated females at time intervals 20 minutes and 1 hour, during the same bleeding session. To ensure that measurements reflect corticosterone elevations associated with the injection and not the stress of handling, samples were taken from the brachial vein within 3 minutes of capture (Romero and Romero, 2002, Condor; 104:129-135; Wingfield et al., 1982, Condor; 84:399-409). Injections and sampling began at 2300 hours (5 hors prior to ovulation) to accurately measure the blood plasma levels of corticosterone and changes in corticosterone levels in response to injections during the approximate period that meiosis occurs. Based on studies done in other avian species, it is likely that the time period from injection to blood sampling is just prior to the natural diurnal CORT peak that occurs at the end of the dark period (Westerhof et al., 1994, Avian Diseases; 38:428-434; de Jong et al., 2001, Physiology and Behavior; 74:299-304). The procedures for extraction and radioimmunoassay of corticosterone from plasma were followed as described by (Wingfield and Farner, 1975, Steroids; 26:311-327) and (Mendonça et al., 1996, Horm Behav; 30:153-161) using a rabbit derived anti-corticosterone antibody (MP Biomedicals, Solon, Ohio USA, cat #07-120016).
Statistical Analysis. Plasma CORT concentrations were analyzed among treatment groups and time points using a two-way ANOVA, and individual treatment differences were analyzed using Fisher's PLSD. All hormone data were non-normally distributed and were thus log transformed for statistical analyses.

[3] = Example 3: plasma corticosterone radioimmunoassay after injection, laying hens; format: in vivo, chicken; conditions: 1.5 mg
Experimental: Radioimmunoassays. Blood samples were collected from a separate set of hens to verify that CORT treatment elevated plasma corticosterone during the completion of meiotic segregation. Relative to the injections described above (5 h prior to ovulation), blood samples were collected from half of the CORT, CONT, and UN-treated hens at 1 h and the other half at 4 h (FIG. 6). Blood samples were collected from the brachial vein within 3 min of initial handling to avoid variation due to handling stress (Romero and Reed, 2005, Comp Biochem Physiol A; 140:73-79). Extraction and radioimmunoassay of plasma corticosterone were completed as described by Mendonça et al. (Mendonça et al., 1996, Horm Behav; 30:153-161). Twenty-four blood samples were analyzed from UN-treated hens (12 from each time period), 12 from CONT-treated hens (5 and 7 at 1 h and 4 h, respectively), and 12 from CORT-treated hens (6 from each time period).
Statistical Analysis. […] All hormone data were non-normally distributed and were log-transformed for statistical analysis. Plasma corticosterone concentrations were analyzed among treatment groups and time points using an ANOVA and differences among individual treatment groups were analyzed using Fisher's PLSD. Statistical analyses were carried out using Statview software (SAS Institute, Cary, N.C. USA).

[4] = Plasma corticosterone in hens after CORT injections (FIG. 9); format: in vivo, chicken; conditions: 0.5 mg CORT in peanut oil (physiologically high dose)
Experimental: FIG. 9. Plasma corticosterone concentrations in hens after injections of 1.5 mg CORT, 0.5 mg CORT, oil control, and uninjected.
To test for a dose-dependent effect of CORT on sex ratios, female leghorns will be housed in layer cages, provided access to food and water ad libitum and will be randomly divided into one of seven treatment groups (n=72 each). […] To test whether CORT is a mediator in the sex determination process, one group from each of these treatment sets will also receive a dose of RU-486 (0.5 mg dissolved in 500 ul dH20), a glucocorticoid receptor blocker, administered 15 min prior to the injection treatment itself. […] As a result, treatment with RU-486 should not interrupt normal laying cycles. One final group will receive no injection treatment.

[5] = test system: Hyline W-36 and Brown layer hens; assay: Example 3: offspring sex ratio after acute corticosterone injection five hours before ovulation, laying hens; format: in vivo, chicken
Experimental: Hyline W-36 and Brown layer hens were housed in individual layer cages in a single room, had ad libitum access to food and water, and maintained on a 14 h L:10 h D light schedule. Hens were artificially inseminated biweekly with pooled semen from 8 roosters to ensure egg fertilization. Hens were monitored throughout the day for egg-laying and eggs were collected manually every 2 h during peak-laying hours. Previous studies in laying hens have shown that ovulation occurs within 30 minutes of oviposition (Johnson, A. L. Reproduction in the female, in Sturkie's Avian Physiology. G. C. Whittow, Editor. 2000, Academic Press: New York, N.Y. p. 569-596); therefore, egg laying patterns can be used to predict the timing of ovulation.
Injection treatments were administered to hens subcutaneously in the back of the neck five hours prior to the predicted time of ovulation with one of the following treatments: 0.5 ml of control peanut oil (CONT) or 1.5 mg corticosterone dissolved in 0.5 ml of peanut oil (CORT). Ovulated follicles took 24 h to pass through the remainder of the reproductive tract and were collected at oviposition (FIG. 6). […]
Statistical Analysis. […] Plasma corticosterone concentrations were analyzed among treatment groups and time points using an ANOVA and differences among individual treatment groups were analyzed using Fisher's PLSD. […]

Structure (SMILES): C[C@]12C[C@H](O)[C@H]3[C@@H](CCC4=CC(=O)CC[C@@]43C)[C@@H]1CC[C@@H]2C(=O)CO [corticosterone]
- duration of elevated CORT concentrations following injection [1]: approximately 90 minutes
- implanted birds that continued to lay at a similar frequency (laying hens; silastic CORT implants, laying monitored for 2 weeks after implantation): 100%
- CORT concentrations after silastic CORT implants (laying hens; within 2 d of implantation, persisted 1 week after implantation): significantly elevated CORT concentrations
- plasma corticosterone levels compared to non-injected birds ([2]; 20 minutes after injection, p<0.0001): raised corticosterone levels significantly
- levels of corticosterone post-injection ([2]; 20 minutes, 1 hour and 2.5 hours post-injection (summary statement)): significantly elevated levels of corticosterone
- plasma corticosterone levels compared to non-injected birds ([2]; 1 hour post-injection, p=0.0002): remained significantly elevated
- plasma corticosterone levels, CORT treated versus control treated females ([2]; 2.5 hours after injection, p=0.0789): similar
- plasma corticosterone levels compared to unmanipulated females ([2]; 2.5 hr post-injection versus unmanipulated birds sampled at 1 h, p=0.0401): significantly higher corticosterone levels
- plasma corticosterone levels (FIG. 4 legend) ([2]; min and one hour after injection): significantly raised plasma corticosterone levels
- plasma corticosterone levels compared to CONT and UN treated hens ([3]; 1 h after injection, p<0.0001 in both cases): significantly raised corticosterone levels
- plasma corticosterone concentrations ([3]; four hours post-injection, CORT-UN p<0.01, CORT-CONT p=0.07): only significantly elevated in CORT-treated hens
- CORT concentrations reached [4]: below 40 ng/ml
- males produced (offspring sex ratio) ([5]; 1.5 mg in 0.5 ml peanut oil subcutaneously five hours before ovulation, p=0.01 vs all hens the day before, p=0.72 vs control injection): ~83% and 82.6%
- males produced after treatment compared to before treatment, same hens ([5]; 1.5 mg, target versus pre-target eggs, p=0.02): produced significantly more males
